Data taken from patent publication US20060222636A1, “Compositions, methods and kits relating to reprogramming adult differentiated cells and production of embryonic stem cell-like cells” (The Rockefeller University, priority 2003, published 2006).
Where two headings read alike, the source gives them in different places.

How the values were obtained:
human Schwann cells = test: Apoptosis markers (TUNNEL assays, immunoblot of Caspase-3, Caspase-9, PARP); format: cell-based; conditions: Camptothecin (1.5 μM)-treated Schwann cells, within 48 hours, positive control
Description: Total protein extracts were prepared from M. leprae infected and non-infected human Schwann cells in cell lysis and nuclear extraction buffer containing 62 mM Tris-HCl pH 6.8, 2% SDS, 10% Glycerol, 50 mM DTT and 0.2% protease inhibitors cocktail (Sigma, St. Louis, Mo.). Lysates were cleared by centrifugation and the protein content was determined according to the BCA method per manufacturer's instructions (PIERCE Chemical, Rockford Ill.). 40 μg of total cellular extracts were separated by sodium dodecyl sulfate-polyacrylamide gel electrophoresis (SDS-PAGE) and transferred to nitrocellulose membranes (Schleicher & Schuell, Keene, N.H.). Bound antibodies were detected using species-specific secondary antibodies coupled to HRP (Cell Signaling Technology, Beverly, Mass.) followed by enhanced chemiluminescence development (PIERCE Chemical, Rockford Ill.).
Total protein extracts were prepared by harvesting M. leprae infected human Schwann cells in cell lysis buffer and non-infected human Schwann cells in nuclear extracting buffer. Lysates were cleared by centrifugation and the protein content was determined according to the BCA method (PIERCE Chemical, Rockford Ill.). […] Protein expression intensity was normalized to β-actin expression and quantified with a densitometer (Alpha Innotech Corporation, San Leandro, Calif.) using the Alpha Imager 2200 v.5.5 software. […]

[1] = test system: Erk1/2 and GSK-3β phosphorylation; format: cell-based, human; conditions: for phosphorylation of Erk1/2 and GSK-3β in infected Schwann cells in presence of inhibitor: synchronized, continuous presence of inhibitor (15 μM); for M. leprae-induced Erk1/2 phosphorylation in presence of PKC inhibitor: 20 nM, serum starved 48 hours
Description: The cDNA produced was subsequently PCR amplified for 30 cycles using the various specific primers and fluorescent probes in a 384-well GeneAmp PCR system 9700 (Applied Biosystems, Foster City, Calif.). The level of each target gene was normalized to GAPDH gene as an endogenous reference. The data obtained were analyzed with the ABI PRISM 7900 HT Sequence detection system (Bulletin No. 2, Applied Biosystems). For control reactions the same master mixes were used but excluding the template RNA. Synchronization of Primary Schwann Cell and Kinase Inhibition Schwann cells that had been cultured for 30 days were synchronized for 48 hours by removing growth factor and serum. Schwann cells were then released to progress through the cell cycle by addition of 10% serum to the culture. Cytoplasmic and nuclear extracts obtained from these synchronized cells were prepared before (time 0) and after addition of serum at various time points (i.e., 9 to 18 hours after release). For Erk1/2 and pI3-k inhibition, pre-evaluated concentrations of specific MEK1/2 inhibitor UO126 (15 μM) and PD098059 (15 μM), pI3-k inhibitor LY294002 (15 μM) (Cell Signaling Technology) and SOS inhibitor (10 μg) (Upstate Biotechnology, Lake Placid, N.Y.) were added to the culture medium during synchronization and serum release, and cytoplasmic and nuclear extracts were prepared as described above and the proteins were immunoblotted using antibodies to phospho-Erk1/2, phospho-Akt, phosphoGSK-3β and cyclin-D1. For SOS inhibition studies, cell permeable SOS inhibitory peptide was added and the cells were treated as described above to analyze the effect of SOS inhibitor on M. leprae-induced activation of the above-referenced signaling molecules. None of the inhibitors examined produced any detectable apoptosis or non-apoptotic Schwann cell death under these conditions.
(§1) Human Schwann cells that had been cultured for 30 days with and without M. leprae were synchronized for 48 hours and then released to re-enter the cell cycle by addition of 10% serum. Cytoplasmic and nuclear extracts of these synchronized cells were prepared before and after addition of serum at different time points (9 to 18 hours after release). For Erk1/2 and PI3-k inhibition, pre-evaluated concentrations of specific MEK1/2 inhibitor UO126 (15 μM) and PD098059 (15 μM), pI3-k inhibitor LY294002 (15 μM) (Cell Signaling Technology), SOS inhibitor (10 μg) (Upstate Biotechnology, Lake Placid N.Y.) were used. For PKC and lck inhibition, pan-PKC inhibitor bisindolylmaleimide-I (20 nM) and Lck inhibitor PP2 (10 μM) (Calbiochem-Novabiochem Corporation, CA), respectively, were added to the culture medium during synchronization, and cytoplasmic and nuclear extracts were prepared as described above and were immunoblotted with antibodies to various phospho-specific signaling antibodies. None of the inhibitors produced any apoptosis or Schwann cell death under these conditions.

cyclin D1 = test: Nuclear cyclin D1 immunoblot of synchronized Schwann cells; format: cell-based, human; conditions: added to MEK and Pi3-kinase inhibitors
Description: Protein expression intensity was normalized using β-actin expression as an internal control marker and quantified with a densitometer (Alpha Innotech Corporation, San Leandro, Calif.) using the Alpha Imager 2200 v.5.5 software. For preparation of nuclear and cytoplasmic extracts, cells were incubated in a buffer containing 10 mM HEPES pH 7.5, 60 mM KCl, 1 mM EDTA, 0.1% NP-40, 1 mM DTT, 1 mM PMSF and protease inhibitors cocktail for 10 minutes on ice. Lysates were then centrifuged for 10 minutes and the supernatant, which comprised of cytoplasmic extract, was collected. The pellet was re-suspended in a buffer containing 50 mM Tris-HCl pH 7.5, 150 mM NaCl, 1% sodium lauryl sarcosine, 1% NP-40, 0.1% SDS, 1 mM EDTA and protease inhibitors cocktail. After brief sonication, the lysates were centrifuged for 10 minutes and the supernatant, consisting of nuclear extract, was collected. The protein content in both extracts was determined using the BCA method per manufacturer's instructions (Pierce Chemical, Rockford, Ill.).
The cDNA produced was subsequently PCR amplified for 30 cycles using the various specific primers and fluorescent probes in a 384-well GeneAmp PCR system 9700 (Applied Biosystems, Foster City, Calif.). […] The data obtained were analyzed with the ABI PRISM 7900 HT Sequence detection system (Bulletin No. 2, Applied Biosystems). […]

[2] = test system: human primary Schwann cells; test: Cell cycle FACS analysis (propidium iodide); format: cell-based
Description: Human primary Schwann cells, that had been cultured for 15 and 30 days with and without M. leprae were trypsinized and adjusted to equal cell number. For the experiments with kinase inhibitors, synchronized infected and control cells were treated with pre-evaluated concentrations of various inhibitors as described previously elsewhere herein, and with different combinations of inhibitors before being processed for cell cycle FACS (Lemoine and Marriott, 2001, J. Biol. Chem. 276:31851-31857). To assess the effect of Lck inhibitor on heregulin-induced cell cycle progression, synchronized Schwann cells were treated with heregulin for 30 minutes in the presence and absence of Lck inhibitor. Cells were then washed with PBS, fixed with 85% ethanol overnight at […] and suspended in 1 ml PBS containing 1% FBS, RNase A (250 μg/ml; Roche Molecular Biochemicals) and 100 μg/ml Propidium Iodide (Sigma) for 30 minutes at 37° C. Stained cells were washed twice with PBS and subjected to FACS analysis on a Becton Dickinson FACScan cytometer (Ruhl et al., 1999, J. Biol. Chem. 274: 34361-34368). The cell cycle profile was analyzed with CellQuest software (Becton & Dickinson).

PKCα/βII = test: Phospho-PKC isoform immunoblot; format: cell-based, human
Description: as §1
Although PKC is known to play a role in oligodendrocyte proliferation and differentiation (Bhat et al., 1992, J. Neurosci. Res. 32:340-349; Stariha and Kim, 2001, Microsc. Res. Tech. 52:680-688), much less is known about its function in Schwann cells. […]

Lck/Ser-158 = test: Phospho-Lck/Ser-158 immunoblot; format: cell-based, human; conditions: PKC inhibitor (10 μM)
Description: as §1, with “For PKC and lck inhibition, pan-PKC inhibitor bisindolylmaleimide-I (20 nM) and Lck inhibitor PP2 (10 μM) (Calbiochem-Novabiochem Corporation, CA), respectively, were added to the culture medium during synchronization, and cytoplasmic and nuclear extracts were prepared as described above and were immunoblotted with antibodies to various phospho-specific signaling antibodies.” left out
To examine if the addition of exogenous Heregulin-β1 can induce Lck/Ser-158 phosphorylation, human Schwann cells were serum-starved for 48 hours and then incubated with 10 nM […] for 30 minutes. Subsequently, total protein lysates were prepared and the phosphorylation state of Erk1/2, PKC-alpha-betaII/βII and Lck-Ser158 were examined using phospho-specific antibodies.

CC[C@@]1(O)C(=O)OCc2c1cc1n(c2=O)Cc2cc3ccccc3nc2-1 [Camptothecin]
expression of apoptosis markers caspase 3, caspase 9, PARP (human Schwann cells): induced the expression of these apoptotic markers | expression of apoptosis markers caspase 3, caspase 9, PARP (human Schwann cells; listed as camptothecin): express all three apoptosis markers

O=c1cc(N2CCOCC2)oc2c(-c3ccccc3)cccc12 [LY294002]
phosphorylation of Erk1/2 and GSK-3β in infected Schwann cells in presence of inhibitor [1]: not inhibited

CC(C)(C)n1nc(-c2ccc(Cl)cc2)c2c(N)ncnc21 [PP2]
M. leprae-induced phosphorylation of Erk1/2 in presence of Lck inhibitor ([1]; 10 μM, with MEK1/2 and Pi3K inhibitors, 48 hours): significant reduction | nuclear cyclin D1 in presence of Lck inhibitor (cyclin D1; listed as Lck inhibitor): dramatically reduced | nuclear cyclin D1 in presence of Lck inhibitor (cyclin D1; listed as Lck-inhibitor): significant blockade | net M. leprae-induced S-phase cell population in presence of Lck inhibitor ([2]; added to MEK and Pi3-kinase inhibitors): dramatically reduced | net S-phase population induced by exogenous heregulin-β1 in presence of Lck inhibitor ([2]; listed as Lck inhibitor): did not affect | net S-phase population induced by exogenous heregulin-β1 in presence of Lck inhibitor ([2]; listed as Lck-inhibitor): fails to respond

N#CC(=C(/N)Sc1ccccc1N)/C(C#N)=C(\N)Sc1ccccc1N [U0126]
phosphorylation of Erk1/2 and GSK-3β in infected Schwann cells in presence of inhibitor [1]: not inhibited

CN(C)CCCn1cc(C2=C(c3c[nH]c4ccccc34)C(=O)NC2=O)c2ccccc21 [bisindolylmaleimide-I]
M. leprae-induced Erk1/2 phosphorylation in presence of PKC inhibitor ([1]; with MEK1/2 and Pi3K inhibitors): significantly blocked | M. leprae-induced Erk1/2 phosphorylation in presence of PKC inhibitor ([1]; with MEK1/2 and Pi3K inhibitors, listed as PKC inhibitor): dramatically down-regulated | apoptosis or cell death of treated cells ([1]; bisindolylmaleimide-I 20 nM): no apoptosis or cell death | M. leprae-induced phospho-PKCα/βII in presence of pan-PKC inhibitor (PKCα/βII): markedly blocked | phosphorylation at Lck/Ser-158 in presence of PKC inhibitor (Lck/Ser-158; listed as PKC inhibitor): completely abolished | phosphorylation at Lck/Ser-158 in presence of PKC inhibitor (Lck/Ser-158; listed as PKCI): abrogated
